Among the data in ChEMBL document CHEMBL1135027, “Tyrosylprotein sulfotransferase inhibitors generated by combinatorial target-guided ligand assembly” (Bioorg Med Chem Lett, 2002) are IC50, inhibition and Inhibition values, retold here.

A value given as a limit tells only on which side of the number the result lay.

For data set [1], the target named is T1, Sulfotransferase 1E1 (Homo sapiens, UniProt P49888).
T1 sequence (P49888 whole entry): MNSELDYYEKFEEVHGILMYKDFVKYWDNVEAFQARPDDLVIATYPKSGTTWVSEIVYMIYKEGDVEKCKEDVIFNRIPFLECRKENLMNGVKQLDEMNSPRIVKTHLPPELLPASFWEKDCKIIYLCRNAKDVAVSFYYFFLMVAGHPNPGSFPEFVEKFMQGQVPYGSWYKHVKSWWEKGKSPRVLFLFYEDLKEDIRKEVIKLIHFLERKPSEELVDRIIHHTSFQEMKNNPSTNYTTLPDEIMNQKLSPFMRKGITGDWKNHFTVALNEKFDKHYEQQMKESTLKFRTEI
The experiment in a line: Compound was tested for inhibition against estrogen sulfotransferase (EST), a human cytosolic sulfotransferase.

Data set [2] addresses T2, Carbohydrate sulfotransferase 4 (Homo sapiens) (UniProt Q8NCG5).
T2 sequence (whole entry): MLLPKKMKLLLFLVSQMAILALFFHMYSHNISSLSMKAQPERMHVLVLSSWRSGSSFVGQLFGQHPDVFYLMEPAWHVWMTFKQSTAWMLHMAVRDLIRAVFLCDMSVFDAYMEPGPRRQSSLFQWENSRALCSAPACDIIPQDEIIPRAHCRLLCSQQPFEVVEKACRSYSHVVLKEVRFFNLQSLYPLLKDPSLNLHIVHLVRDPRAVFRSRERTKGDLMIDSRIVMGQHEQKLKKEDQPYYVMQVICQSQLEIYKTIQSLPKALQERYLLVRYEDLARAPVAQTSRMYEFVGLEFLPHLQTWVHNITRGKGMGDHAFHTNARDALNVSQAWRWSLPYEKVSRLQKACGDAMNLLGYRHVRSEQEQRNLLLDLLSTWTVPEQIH
The experiment in a line: Inhibitory activity of compound was determined against human high endothelial cell (HEC) GlcNAc-6-ST sulfotransferase at 100 uM. The format is cell-based.

Data set [3] concerns the target T3, Protein-tyrosine sulfotransferase 2 (Homo sapiens, UniProt O60704).
T3 sequence (O60704 whole entry): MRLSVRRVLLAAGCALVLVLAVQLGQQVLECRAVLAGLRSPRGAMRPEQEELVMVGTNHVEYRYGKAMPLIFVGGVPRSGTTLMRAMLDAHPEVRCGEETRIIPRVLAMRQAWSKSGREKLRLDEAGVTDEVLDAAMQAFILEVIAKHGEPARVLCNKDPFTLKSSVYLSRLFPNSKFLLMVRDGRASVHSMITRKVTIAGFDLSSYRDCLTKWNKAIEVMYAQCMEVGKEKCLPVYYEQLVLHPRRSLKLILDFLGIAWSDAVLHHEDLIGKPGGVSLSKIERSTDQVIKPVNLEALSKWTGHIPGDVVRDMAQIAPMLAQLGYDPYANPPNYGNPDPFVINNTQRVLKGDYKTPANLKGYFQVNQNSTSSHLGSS
The experiment in a line: Inhibitory activity of compound was determined against human tyrosylprotein sulfotransferase-2 (hTPST-2) using [35S]PAPS radioligand.

For data set [4], the target named is T3, Protein-tyrosine sulfotransferase 2. The experiment in a line: Compound was tested for reversible inhibition of human tyrosylprotein sulfotransferase-2 (hTPST-2) at 40 uM for 5 hours and dialyzed; complete reversible inhibition observed.
The target in data set [5] is T4, estrogen sulfotransferase (Sulfotransferase 1E1) (Homo sapiens, UniProt P49888).
T4 sequence (P49888 whole entry): T1 sequence (P49888 whole entry)
The experiment in a line: Inhibitory activity of compound was determined against estrogen sulfotransferase at 100 uM.

Data set [6] can be described thus: Inhibitory activity of compound was determined against bacterial GlcNAc-6-sulfotransferase (NodST) at 100 uM.
Data set [7] addresses T1, Sulfotransferase 1E1. The experiment in a line: Compound was tested for inhibition against estrogen sulfotransferase (EST), a human cytosolic sulfotransferase.
Data set [8] has as its target T4, estrogen sulfotransferase (Sulfotransferase 1E1). The experiment in a line: Inhibitory activity of compound was determined against human estrogen sulfotransferase at 100 uM.
Data set [9] addresses T3, Protein-tyrosine sulfotransferase 2. The experiment in a line: Compound was tested for reversible inhibition of human tyrosylprotein sulfotransferase-2 (hTPST-2) at 40 uM for 5 hours and dialyzed.
For data set [10] the target is unchanged. The experiment in a line: Displacement of [35S]PAPS from human tyrosylprotein sulfotransferase-2 (hTPST-2). More on the design: concentration or dose not given beside the values.
For data set [11] the target is unchanged. The experiment in a line: Inhibitory activity of compound was determined against human tyrosylprotein sulfotransferase-2 (hTPST-2) using [35S]PAPS radioligand at 800 uM.

By IC50 is commonly meant the concentration that gives 50% inhibition. As usually defined, the inhibition is how much of the control response was suppressed. For orientation: Inhibition means the percentage by which the read-out fell short of the control. As to `O=c1c(/C=N/OCCCCCO/N=C/c2cc(Br)c(O)c(Br)c2)coc2c(Cl)cc(Cl)cc12`, the IC50 on Sulfotransferase 1E1 [1] amounted to 250 nM; in data set [3], 30 µM. Moreover, the inhibition was determined as 30% in [2] and 66% in [6]. The Inhibition entry in data set [4] is “complete reversible inhibition observed”. In data set [5], at 100 µM the inhibition was 100%.

For the molecule `O=c1c(/C=N/OCCCCCO/N=C/c2cc(Br)cc([N+](=O)[O-])c2O)coc2c(Cl)cc(Cl)cc12`, the IC50 against Sulfotransferase 1E1 [7] amounted to 3 µM; in data set [3], 40 µM. Moreover, the inhibition in data set [2] turned out to be 7%; in [6], 19%. Further, the inhibition at 100 µM in data set [8] turned out to be 100%. In addition, the inhibition at 40 µM in data set [9] stood at 50%.

In turn, `CO/N=C/c1cccc(F)c1O` had an Inhibition in data set [10] of 25%.

Consider `CO/N=C/c1cc(Br)c(O)c(Br)c1`, for which the IC50 in [3] amounted to 425 µM.

As to `CO/N=C/c1coc2c(Cl)cc(Cl)cc2c1=O`, the IC50 in data set [3] was greater than 1000 µM. Further, the inhibition at 800 µM in data set [11] worked out at 40%.

Take `CO/N=C/c1ccc(-c2cccc(Cl)c2)o1`: the Inhibition in data set [10] came out at 50%.

The molecule `CO/N=C/c1coc2cc(C)c(C)cc2c1=O` gave an Inhibition in data set [10] of 35%.

As to `CO/N=C/c1ccc(-c2ccc(Cl)cc2)o1`, in [10], the Inhibition was 70%.

In the case of `CO/N=C/C(=C/c1ccco1)c1ccccc1`, in data set [10], the Inhibition was 55%.

As to `CO/N=C/c1cc(OC)c(O)c(OC)c1`, the Inhibition in [10] amounted to 37%.

As for `CO/N=C/c1cc(I)c(O)c(OC)c1`, in data set [10], the Inhibition was found to be 53%.

`CO/N=C/c1c(O)ccc2ccccc12` showed an Inhibition in data set [10] of 34%.

Take `CO/N=C/C=C/c1ccc([N+](=O)[O-])o1`: the Inhibition in [10] is reported as 47%.

In data set [10], `CO/N=C/c1c(N)oc2ccccc2c1=O` gave an Inhibition of 45%.

Take `CO/N=C/c1coc2ccc(Br)cc2c1=O`: the Inhibition in data set [10] was 85%.

In data set [10], `CO/N=C/c1ccc([N+](=O)[O-])s1` had an Inhibition of 65%.

For `CO/N=C/C(C)=C/c1ccco1`, in [10], the Inhibition is 59%.

As for `CO/N=C/c1cc(I)cc(I)c1O`, the Inhibition in data set [10] is on record as 48%.

For the molecule `CO/N=C/c1cc(C)cc(Br)c1O`, the Inhibition in data set [10] turned out to be 31%.

`CO/N=C/c1cc(Br)cc([N+](=O)[O-])c1O` came in with an IC50 in data set [3] greater than 1000 µM.
